The test addresses Macrophage colony-stimulating factor 1 receptor (Homo sapiens, UniProt P07333). The test can be described thus: Displacement of kinase tracer 236 from recombinant human His-tagged CSF1R cytoplasmic domain (538 to 910 residues) expressed in baculovirus-infected insect cells measured after 5 hrs by TR-FRET based LanthaScreen assay.

Macrophage colony-stimulating factor 1 receptor, sequence (P07333 whole entry, the tested form may be a part): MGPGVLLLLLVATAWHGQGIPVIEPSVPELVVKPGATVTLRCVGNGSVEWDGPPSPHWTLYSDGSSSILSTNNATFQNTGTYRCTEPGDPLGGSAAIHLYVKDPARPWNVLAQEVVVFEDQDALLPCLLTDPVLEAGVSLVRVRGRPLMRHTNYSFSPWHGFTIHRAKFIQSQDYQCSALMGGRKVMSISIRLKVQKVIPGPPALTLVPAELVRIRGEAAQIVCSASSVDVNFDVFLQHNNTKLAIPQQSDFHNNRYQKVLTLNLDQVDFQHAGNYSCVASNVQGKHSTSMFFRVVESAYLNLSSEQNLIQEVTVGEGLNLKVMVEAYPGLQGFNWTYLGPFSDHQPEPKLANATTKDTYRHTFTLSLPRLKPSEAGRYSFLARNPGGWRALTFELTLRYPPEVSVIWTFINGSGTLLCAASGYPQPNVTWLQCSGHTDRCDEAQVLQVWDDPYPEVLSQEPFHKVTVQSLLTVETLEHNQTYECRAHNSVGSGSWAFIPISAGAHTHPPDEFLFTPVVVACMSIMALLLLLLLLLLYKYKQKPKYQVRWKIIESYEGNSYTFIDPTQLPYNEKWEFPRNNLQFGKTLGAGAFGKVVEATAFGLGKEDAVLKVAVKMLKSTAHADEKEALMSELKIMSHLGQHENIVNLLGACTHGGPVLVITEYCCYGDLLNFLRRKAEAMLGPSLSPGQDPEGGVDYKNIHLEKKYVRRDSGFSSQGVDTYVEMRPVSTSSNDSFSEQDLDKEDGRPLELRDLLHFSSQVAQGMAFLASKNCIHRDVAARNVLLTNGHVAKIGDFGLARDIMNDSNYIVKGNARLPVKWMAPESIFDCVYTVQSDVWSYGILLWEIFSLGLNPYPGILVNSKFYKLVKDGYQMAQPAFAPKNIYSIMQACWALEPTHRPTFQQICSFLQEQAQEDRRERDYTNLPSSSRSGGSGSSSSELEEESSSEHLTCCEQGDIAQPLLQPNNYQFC

Turning to `COc1cc(-n2c3c(c4ncnc(N)c42)CCC3)ccc1NC(=O)Cn1cnc(C(F)(F)F)c1`, the IC50 fell in the range of 10 to 200 nM.

`COc1cc(-n2c3c(c4ncnc(N)c42)CCC3)ccc1NC(=O)Cc1cc(C(F)F)on1`: the IC50 is < 10 nM.

As for `COc1cc(-n2c3c(c4ncnc(N)c42)CCC3)ccc1NC(=O)Cc1nc(C(C)C)no1`, the IC50 was < 10 nM.

With `CNC(=O)c1ccc(CC(=O)Nc2ccc(-n3c4c(c5ncnc(N)c53)CCC4)cc2OC)cc1`, the 50% inhibitory concentration (IC50) is > 200 nM.

Take `Nc1ncnc2c3c(n(-c4ccc(NC(=O)Cc5cc(C(F)(F)F)no5)cc4)c12)CCC3`: the half-inhibitory concentration (IC50) was < 10 nM.

On to `COc1cc(-n2c3c(c4ncnc(N)c42)CCC3)ccc1NC(=O)Cn1cc(C(F)(F)F)cn1`, for which the half-maximal inhibitory concentration (IC50) is < 10 nM.

With `COc1cc(-n2c3c(c4ncnc(N)c42)COC3)ccc1NC(=O)Cn1cc(C(F)(F)F)cn1`, the half-inhibitory concentration (IC50) is 10 to 200 nM.

In the case of `COc1cc(-n2c3c(c4ncnc(N)c42)CCC3)ccc1CC(=O)N1CCOc2ccccc21`, the IC50 is < 10 nM.

Consider `COc1cc(-n2c3c(c4ncnc(N)c42)COC3)ccc1NC(=O)Cc1nccc(C(F)(F)F)n1`, for which the concentration for half-maximal inhibition (IC50) is > 200 nM.

In the case of `COc1cc(-n2c3c(c4ncnc(N)c42)CCC3)ccc1NC(=O)Cc1nccc(C(F)(F)F)n1`, the concentration for half-maximal inhibition (IC50) was 10 to 200 nM.

For `Nc1ncnc2c3c(n(-c4ccc(NC(=O)Cc5ccnc(C(F)(F)F)c5)cc4)c12)COC3`, the IC50 lay in the range of 10 to 200 nM.

With `COc1cc(-n2c3c(c4ncnc(N)c42)CCC3)ccc1NC(=O)Cc1ccnc(C(F)(F)F)n1`, the 50% inhibitory concentration (IC50) fell in the range of 10 to 200 nM.

For the molecule `COc1cc(-n2c3c(c4ncnc(N)c42)COC3)ccc1NC(=O)CN1C(=O)COc2ccccc21`, the IC50 is > 200 nM.

For `Nc1ncnc2c3c(n(-c4ccc(NC(=O)Cn5ccc(C(F)(F)F)n5)cc4)c12)COC3`, the IC50 lay within 10 to 200 nM.

For the molecule `Nc1ncnc2c3c(n(-c4ccc(NC(=O)Cn5ccc(C(F)(F)F)n5)cc4)c12)CCC3`, the IC50 is < 10 nM.

For the molecule `Nc1ncnc2c3c(n(-c4ccc(CC(=O)Nc5cnc(C(F)(F)F)nc5)cc4)c12)CCC3`, the IC50 lay within 10 to 200 nM.

Turning to `COc1cc(-n2c3c(c4ncnc(N)c42)CCC3)ccc1NC(=O)Cc1ccc(C(=O)N(C)C)cc1`, the IC50 lay in the range of 10 to 200 nM.

As for `COc1cc(-n2c3c(c4ncnc(N)c42)CCC3)ccc1NC(=O)Cc1nnccc1C(F)(F)F`, the half-inhibitory concentration (IC50) is > 200 nM.

Turning to `COc1cc(-n2c3c(c4ncnc(N)c42)COC3)ccc1NC(=O)Cn1nc(C)cc1C(F)(F)F`, the half-maximal inhibitory concentration (IC50) was > 200 nM.

For `COc1cc(CC(=O)Nc2ccc(-n3c4c(c5ncnc(N)c53)CCC4)cc2OC)cc(OC)c1`, the IC50 is < 10 nM.

`Nc1ncnc2c3c(n(-c4ccc(CC(=O)NCc5ccccc5)cc4)c12)CCC3`: the IC50 lay within 10 to 200 nM.

As for `COc1cc(-n2c3c(c4ncnc(N)c42)COC3)ccc1NC(=O)Cn1cnc(C(F)(F)F)c1`, the half-maximal inhibitory concentration (IC50) was 10 to 200 nM.

On to `Nc1ncnc2c3c(n(-c4ccc(NC(=O)Cc5ccccc5)nc4)c12)CCC3`, for which the IC50 is > 200 nM.

Regarding `COc1cc(-n2c3c(c4ncnc(N)c42)CCC3)ccc1NC(=O)Cc1cc(C(F)(F)F)on1`, the IC50 is < 10 nM.

Take `COc1cc(-n2c3c(c4ncnc(N)c42)CCC3)ccc1CC(=O)Nc1ccccc1`: the half-inhibitory concentration (IC50) lay in the range of 10 to 200 nM.

In the case of `Nc1ncnc2c3c(n(-c4ccc(CC(=O)Nc5cccnc5)cc4)c12)CCC3`, the IC50 was > 200 nM.

For `COc1cc(-n2c3c(c4ncnc(N)c42)CCC3)ccc1NC(=O)Cc1c(C)noc1C`, the IC50 was > 200 nM.

`COc1cc(-n2c3c(c4ncnc(N)c42)CCC3)ccc1NC(=O)CN1C(=O)COc2ccccc21`: the IC50 fell in the range of 10 to 200 nM.

Turning to `COc1cc(-n2c3c(c4ncnc(N)c42)CCC3)ccc1NC(=O)Cc1cc(C(F)(F)F)no1`, the IC50 is < 10 nM.

As to `COc1cc(-n2c3c(c4ncnc(N)c42)CCC3)ccc1NC(=O)Cn1nc(C)cc1C`, the IC50 lay within 10 to 200 nM.

Turning to `Cn1ncc(CC(=O)Nc2ccc(-n3c4c(c5ncnc(N)c53)CCC4)cc2)c1C(F)(F)F`, the half-maximal inhibitory concentration (IC50) was < 10 nM.

On to `COc1cc(-n2c3c(c4ncnc(N)c42)CCC3)ccc1NC(=O)Cc1cnccn1`, for which the IC50 is > 200 nM.

For the molecule `COc1ccc(NC(=O)Cc2ccc(-n3c4c(c5ncnc(N)c53)CCC4)cc2)nn1`, the concentration for half-maximal inhibition (IC50) is > 200 nM.

For the molecule `Nc1ncnc2c3c(n(-c4ccc(NC(=O)Cn5cnc(C(F)(F)F)c5)cc4)c12)COC3`, the half-inhibitory concentration (IC50) was < 10 nM.

Regarding `COc1cc(-n2c3c(c4ncnc(N)c42)CCC3)ccc1CC(=O)Nc1cc(C)ccc1F`, the IC50 is < 10 nM.

As for `COc1cc(-n2c3c(c4ncnc(N)c42)COC3)ccc1NC(=O)Cc1ccc(C)cc1F`, the IC50 is < 10 nM.

For the molecule `COc1cc(-n2c3c(c4ncnc(N)c42)CCC3)ccc1NC(=O)Cc1cnn(C)c1C(F)(F)F`, the 50% inhibitory concentration (IC50) was < 10 nM.

`NC(=O)c1ccc(CC(=O)Nc2ccc(-n3c4c(c5ncnc(N)c53)CCC4)cc2)cc1C(F)(F)F`: the IC50 lay in the range of 10 to 200 nM.

Consider `COc1cc(-n2c3c(c4ncnc(N)c42)CCC3)ccc1NC(=O)CN1CCCc2cc(F)ccc21`, for which the concentration for half-maximal inhibition (IC50) is 10 to 200 nM.

In the case of `CN(C)c1cc(CC(=O)Nc2ccc(-n3c4c(c5ncnc(N)c53)CCC4)cc2)ccc1C(F)(F)F`, the concentration for half-maximal inhibition (IC50) was in the range of 10 to 200 nM.

On to `Nc1ncnc2c3c(n(-c4ccc(NC(=O)Cc5ccccc5)c(C(F)(F)F)c4)c12)CCC3`, for which the IC50 is > 200 nM.

For `COc1ccc(CC(=O)Nc2ccc(-n3c4c(c5ncnc(N)c53)COC4)cc2OC)c(F)c1`, the IC50 fell in the range of 10 to 200 nM.

As to `COc1cc(-n2c3c(c4ncnc(N)c42)COC3)ccc1NC(=O)CN1CCOc2ccccc21`, the IC50 was > 200 nM.

`COc1cc(-n2c3c(c4ncnc(N)c42)CCC3)ccc1CC(=O)Nc1ccc(C(F)(F)F)cn1`: the IC50 is < 10 nM.

With `COc1ccc(NC(=O)Cc2ccc(-n3c4c(c5ncnc(N)c53)CCC4)cc2OC)c(F)c1`, the IC50 was < 10 nM.

`Nc1ncnc2c3c(n(-c4ccc(NC(=O)Cn5cc(C(F)(F)F)cn5)cc4)c12)CCC3`: the IC50 is < 10 nM.

`COc1cc(-n2c3c(c4ncnc(N)c42)COC3)ccc1NC(=O)Cn1ncc2ccccc21`: the half-inhibitory concentration (IC50) is 10 to 200 nM.

`COc1cc(-n2c3c(c4ncnc(N)c42)COC3)ccc1NC(=O)Cc1ccnc(C(F)(F)F)n1`: the IC50 is > 200 nM.

For the molecule `COc1cc(-n2c3c(c4ncnc(N)c42)COC3)ccc1NC(=O)Cc1cccc(OC)c1C`, the IC50 was < 10 nM.

For the molecule `COc1cc(-n2c3c(c4ncnc(N)c42)CCC3)ccc1NC(=O)Cc1ccc(C(F)(F)F)nn1`, the concentration for half-maximal inhibition (IC50) was found to be 9 nM.

As to `Nc1ncnc2c3c(n(-c4ccc(NC(=O)Cn5cnc(C(F)(F)F)c5)cc4)c12)CCC3`, the IC50 is < 10 nM.

Consider `COc1cc(-n2c3c(c4ncnc(N)c42)CCC3)ccc1NC(=O)Cc1cc(C(F)(F)F)nn1C`, for which the half-inhibitory concentration (IC50) lay within 10 to 200 nM.

Take `COc1cc(-n2c3c(c4ncnc(N)c42)CCC3)ccc1CC(=O)Nc1ccc(C(F)(F)F)nc1`: the IC50 was < 10 nM.

With `Nc1ncnc2c3c(n(-c4ccc(NC(=O)[C@@H](N)Cc5ccccc5)cc4)c12)CCC3`, the half-maximal inhibitory concentration (IC50) is > 200 nM.

Regarding `COc1cc(-n2c3c(c4ncnc(N)c42)CCC3)ccc1NC(=O)Cc1cnn(C)c1`, the 50% inhibitory concentration (IC50) lay within 10 to 200 nM.

Take `COc1cc(-n2c3c(c4ncnc(N)c42)CCC3)ccc1NC(=O)Cn1cc(C(F)(F)F)nc1C`: the IC50 lay in the range of 10 to 200 nM.

Consider `Nc1ncnc2c3c(n(-c4ccc(CC(=O)NC5CCCCC5)cc4)c12)CCC3`, for which the concentration for half-maximal inhibition (IC50) fell in the range of 10 to 200 nM.

In the case of `Nc1ncnc2c3c(n(-c4ccc(NC(=O)Cc5cc(C(F)F)on5)cc4)c12)CCC3`, the half-maximal inhibitory concentration (IC50) was 10 to 200 nM.

Regarding `COc1cc(-n2c3c(c4ncnc(N)c42)CCC3)ccc1NC(=O)Cn1nc(C)cc1C(F)(F)F`, the IC50 lay within 10 to 200 nM.

In the case of `COc1cc(-n2c3c(c4ncnc(N)c42)CCC3)ccc1NC(=O)Cc1cc(C)no1`, the half-maximal inhibitory concentration (IC50) lay within 10 to 200 nM.

Regarding `COc1cc(-n2c3c(c4ncnc(N)c42)CCC3)ccc1NC(=O)Cc1cnn(C(F)F)c1`, the half-inhibitory concentration (IC50) is < 10 nM.

`Cn1nc(C(F)(F)F)cc1CC(=O)Nc1ccc(-n2c3c(c4ncnc(N)c42)CCC3)cc1`: the concentration for half-maximal inhibition (IC50) is < 10 nM.

As for `COc1cc(-n2c3c(c4ncnc(N)c42)CCC3)ccc1NC(=O)Cn1ccc(C(F)(F)F)n1`, the 50% inhibitory concentration (IC50) is < 10 nM.

On to `Nc1ncnc2c3c(n(-c4ccc(NC(=O)Cn5cc(C(F)(F)F)cn5)cc4)c12)COC3`, for which the half-maximal inhibitory concentration (IC50) was 10 to 200 nM.

Consider `COc1cc(-n2c3c(c4ncnc(N)c42)CCC3)ccc1NC(=O)Cc1ccn(C)n1`, for which the IC50 was > 200 nM.

For `Nc1ncnc2c3c(n(-c4ccc(NC(=O)Cc5ccc(C(F)(F)F)nn5)cc4)c12)COC3`, the IC50 lay within 10 to 200 nM.

Regarding `CC(C)c1noc(CC(=O)Nc2ccc(-n3c4c(c5ncnc(N)c53)CCC4)cc2)n1`, the IC50 fell in the range of 10 to 200 nM.

On to `COc1cc(-n2c3c(c4ncnc(N)c42)CCC3)ccc1NC(=O)Cc1coc(-c2ccccc2)n1`, for which the IC50 lay in the range of 10 to 200 nM.

Take `COc1cc(CC(=O)Nc2ccc(-n3c4c(c5ncnc(N)c53)COC4)cc2OC)cc(OC)c1`: the 50% inhibitory concentration (IC50) lay within 10 to 200 nM.

Consider `COc1cc(-n2c3c(c4ncnc(N)c42)COC3)ccc1NC(=O)Cn1ccc(C(F)(F)F)n1`, for which the half-inhibitory concentration (IC50) lay within 10 to 200 nM.

Turning to `Nc1ncnc2c3c(n(-c4ccc(NC(=O)Cc5ccc(Cl)nn5)cc4)c12)COC3`, the IC50 is > 200 nM.

For `COc1cc(-n2c3c(c4ncnc(N)c42)CCC3)ccc1NC(=O)CN1CCOc2ccccc21`, the IC50 is 10 to 200 nM.

With `COc1cc(-n2c3c(c4ncnc(N)c42)COC3)ccc1NC(=O)Cc1ccc(OC)c(C(F)(F)F)c1`, the IC50 was < 10 nM.

As for `Nc1ncnc2c3c(n(-c4ccc(NC(=O)Cc5cc(C(F)(F)F)on5)cc4)c12)CCC3`, the 50% inhibitory concentration (IC50) was < 10 nM.

`COc1cc(-n2c3c(c4ncnc(N)c42)COC3)ccc1NC(=O)Cc1ccc(C(F)(F)F)nn1`: the IC50 was in the range of 10 to 200 nM.

Consider `COc1cc(-n2c3c(c4ncnc(N)c42)COC3)ccc1NC(=O)Cc1cc(C(F)(F)F)on1`, for which the IC50 lay within 10 to 200 nM.

`Nc1ncnc2c3c(n(-c4ccc(NC(=O)Cc5ccccc5)c(OC(F)(F)F)c4)c12)CCC3`: the IC50 was > 200 nM.

Take `Nc1ncnc2c3c(n(-c4ccc(NC(=O)Cc5ccccc5)c(Cl)c4)c12)CCC3`: the half-inhibitory concentration (IC50) was > 200 nM.

Consider `Nc1ncnc2c3c(n(-c4ccc(NC(=O)[C@@H](N)c5ccccc5)cc4)c12)CCC3`, for which the IC50 was > 200 nM.

In the case of `COc1cc(-n2c3c(c4ncnc(N)c42)CCC3)ccc1NC(=O)Cc1ccc2c(c1)CN(C)C2=O`, the IC50 was > 200 nM.

In the case of `COc1cc(-n2c3c(c4ncnc(N)c42)CCC3)ccc1NC(=O)Cn1cc(C)cn1`, the half-inhibitory concentration (IC50) is < 10 nM.

Values taken from ChEMBL document CHEMBL4418299, “Compounds useful as csf1 modulators” (2016).
